Broadly, the GI50 is the concentration that inhibits growth by half. As a reminder, the pIC50 is the negative decadic logarithm of the IC50, by convention in mol/L.

pIC50: −log10 of the molar value. Like-named read-outs stand apart in the source and are kept apart here.

Type in all cases: cell-based
Assay [1] concerns TOV-112D endometrioid adenocarcinoma ovarian cancer cell line. The assay can be described thus: Cell proliferation assay (CellTiter-Glo), TOV-112D. The conditions noted are these: 96-well, 5000 cells per well, 120 hours, highest concentration tested 9000 nM, off-target readout, read-out: TOV-112D GI50 (low PARG dependency). The procedure: (§1) For Examples 1-11, RMUG-S mucinous cystadenocarcinoma (JCRB, #IF050320) and TOV-112D endometrioid adenocarcinoma (ATCC, #CRL-11731) ovarian cancer cell lines were grown in DMEM/F-12 with glutamine (BioConcept, #1-26F09-I) and RPMI with glutamine (BioConcept, #1-41F03-1), respectively, and both media containing 10% FBS (Sigma-Aldrich, #F9665) and supplemented with 1% Penicillin-Streptomycin (BioConcept, #4-01F00-H) using standard cell culture techniques. RMUG-S and TOV-112D ovarian cancer cell lines were selected as highly PARG dependent and having low PARG dependency, respectively, based on their publically available PARG shRNA (short hairpin ribonucleic acid) dropout profiles in the Cancer Dependency Map (DepMap) data portal (Broad Institute DepMap Project; Cheung H W et al, Proceedings of the National Academy of Sciences 2011; Cowley G S et al, Scientific Data 2014; McDonald E R et al, Cell 2017). PARG dependency of these cell lines was independently verified and confirmed by genetic and pharmacological means using shRNA-mediated PARG depletion, and the previously reported cell-permeable quinazolinedione PARG inhibitor tool compound PDD00017273 (Pillay N et al, Cancer Cell 2019). Thus, growth inhibition of the RMUG-S cell line serves as a functional on-target inhibition readout, while observing potent growth inhibition of TOV-112D is indicative of compound off-target activity. Cells were seeded in 96-well plates with clear bottom (Huberlab, #7.655 090) at a seeding density of 5000 cells per well in 100 μL of medium, and the plates were incubated overnight at 37° C. with 5% CO2 prior to treatment with compounds. Experimental compounds were prepared in DMSO at a concentration of 10 mM. Compounds were distributed at the desired final concentrations using the Tecan D300e Digital Dispenser (TECAN) and normalized to the highest DMSO volume. The plates were incubated for 120 hours and cell numbers were then measured using CellTiter-Glo® (Promega, #G9241), essentially as recommended by the manufacturer. Briefly, for the CellTiter-Glo® proliferation readout, 50 μL of the reconstituted CellTiter-Glo® 2.0 Reagent were added to 100 μL of medium containing cells. The plates were incubated at room temperature for 10 minutes to stabilize the luminescent signal, and luminescence intensity signals were then measured with a Synergy 4™ microplate reader (BioTek Instruments). Relative proliferation values were calculated by normalizing the raw data using DMSO-treated cells (100% proliferation) and the signals obtained from cells that were evaluated at the time of compound addition (0% proliferation). The concentration-response data were fitted to a sigmoidal 4-parameter logistic model with the maximum constrained to 100%. GI50 values were calculated from the curves as the compound concentrations reducing proliferation to 50%.

Assay [2] relates to RMUG-S mucinous cystadenocarcinoma ovarian cancer cell line. Nature of the assay: Cell proliferation assay (CellTiter-Glo), RMUG-S, Examples 1-11. The note with it: Examples 1-11: 96-well, 5000 cells per well, 120 hours; highest concentration tested 9000 nM; read-out: RMUG-S GI50 (high PARG dependency). The procedure:
as §1
A general note: In ATP-based viability assays light output follows the ATP content of the culture.

In assay [3] the target is human PARG (PARG-NanoLuc fusion in HEK293T cells) (Homo sapiens (Human), UniProt Q86W56). Nature of the assay: PARG NanoBRET-based cellular target engagement assay. The conditions noted are these: HEK293T cells transfected with PARG-NanoLuc, NanoBRET probe 0.89 μM, 2 hours; read-out: PARG TE IC50. In short, it runs like this:
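HEK293T cells transiently expressing full-length human PARG with C-terminal NanoLuc, plated 24 h, then given compound (8-point series, 0.5% DMSO) for 15 min at room temperature. NanoBRET tracer added at 0.89 μM final, 2 h at 37° C.; BRET ratio (460/645 nm) fitted by 4-parameter logistic to give IC50.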
(In general: Bioluminescence resonance energy transfer reports proximity on the nanometre scale.)

Sequence of human PARG (PARG-NanoLuc fusion in HEK293T cells) (Q86W56 whole entry, the tested form may be a part): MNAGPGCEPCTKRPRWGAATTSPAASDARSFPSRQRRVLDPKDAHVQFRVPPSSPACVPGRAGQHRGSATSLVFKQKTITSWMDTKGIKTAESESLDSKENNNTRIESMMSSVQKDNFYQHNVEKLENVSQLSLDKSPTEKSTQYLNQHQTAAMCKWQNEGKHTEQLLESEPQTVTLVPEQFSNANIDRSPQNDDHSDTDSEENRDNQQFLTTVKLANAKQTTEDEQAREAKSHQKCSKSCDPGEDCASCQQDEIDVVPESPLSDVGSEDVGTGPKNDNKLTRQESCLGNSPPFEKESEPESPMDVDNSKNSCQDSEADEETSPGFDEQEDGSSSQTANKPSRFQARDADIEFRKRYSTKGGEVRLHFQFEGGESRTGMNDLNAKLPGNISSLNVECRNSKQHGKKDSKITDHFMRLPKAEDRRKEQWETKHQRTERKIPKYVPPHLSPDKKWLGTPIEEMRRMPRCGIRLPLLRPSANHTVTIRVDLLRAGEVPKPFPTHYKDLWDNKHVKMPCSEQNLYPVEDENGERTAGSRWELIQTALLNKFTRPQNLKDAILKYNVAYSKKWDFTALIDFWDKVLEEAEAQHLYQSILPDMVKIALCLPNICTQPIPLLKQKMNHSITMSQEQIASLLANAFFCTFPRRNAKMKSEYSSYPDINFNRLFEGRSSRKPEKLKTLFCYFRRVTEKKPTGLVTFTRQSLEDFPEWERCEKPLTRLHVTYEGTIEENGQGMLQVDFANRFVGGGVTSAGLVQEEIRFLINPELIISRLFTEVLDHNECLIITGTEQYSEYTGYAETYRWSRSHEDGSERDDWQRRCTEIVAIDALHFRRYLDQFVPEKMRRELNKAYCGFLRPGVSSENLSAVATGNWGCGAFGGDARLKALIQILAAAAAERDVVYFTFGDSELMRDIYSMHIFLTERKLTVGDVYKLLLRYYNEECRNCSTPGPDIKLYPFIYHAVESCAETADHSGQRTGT

For the compound `Cc1nc(C)c(CO/N=c2\[nH]c3ccc(S(=O)(=O)NC4(C)CC4)cc3c(=O)n2Cc2cnn(C)c2)s1` [Example 3, 2-[(2,4-dimethylthiazol-5-yl)methoxyimino]-N-(1-methylcyclopropyl)-3-[(1-methylpyrazol-4-yl)methyl]-4-oxo-1H-quinazoline-6-sulfonamide], the GI50 in assay [1] (Homo sapiens, TOV112D) was at least 9000 nM; in assay [2], 2000 to 9000 nM. The pIC50 in assay [3] was 6.00 to 7.00.

With `CO/N=c1\[nH]c2c(N3CCN[C@H](C)C3)cc(S(=O)(=O)NC3(C)CC3)cc2c(=O)n1Cc1cnn(C)c1` [Example 7, 2-methoxyimino-N-(1-methylcyclopropyl)-3-[(1-methylpyrazol-4-yl)methyl]-4-oxo-8-[(3R)-3-methylpiperazin-1-yl]-1H-quinazoline-6-sulfonamide], the GI50 is at least 9000 nM in assay [1] (Homo sapiens, TOV112D) and 500 to 2000 nM in assay [2]. In assay [3], the negative-log IC50 (pIC50) was above 7.52.

For `CO/N=c1\[nH]c2ccc(S(=O)(=O)NC3(C)COC3)cc2c(=O)n1Cc1cnn(C)c1` [Example 2, 2-methoxyimino-N-(3-methyloxetan-3-yl)-3-[(1-methylpyrazol-4-yl)methyl]-4-oxo-1H-quinazoline-6-sulfonamide], the 50% growth inhibitory concentration (GI50) in assay [1] (Homo sapiens, TOV112D) is at least 9000 nM; in assay [2] it was 2000 to 9000 nM. Besides, the pIC50 in assay [3] is 6.00 to 7.00.

Consider `CO/N=c1\[nH]c2c(-c3ccc(C(=O)N(C)C)cc3)cc(S(=O)(=O)NC3(C)CC3)cc2c(=O)n1Cc1cnn(C)c1` [Example 5, 4-[2-methoxyimino-6-[(1-methylcyclopropyl)sulfamoyl]-3-[(1-methylpyrazol-4-yl)methyl]-4-oxo-1H-quinazolin-8-yl]-N,N-dimethyl-benzamide], for which the GI50 was at least 9000 nM in assay [1] (Homo sapiens, TOV112D) and 500 to 2000 nM in assay [2]. In addition, in assay [3], the pIC50 is above 7.52.

`CO/N=c1\[nH]c2ccc(S(=O)(=O)NC3(C)CC3)cc2c(=O)n1Cc1cnc(C)s1` [Example 1, 2-methoxyimino-N-(1-methylcyclopropyl)-3-[(2-methylthiazol-5-yl)methyl]-4-oxo-1H-quinazoline-6-sulfonamide]: the GI50 in assay [1] (Homo sapiens, TOV112D) was at least 9000 nM; in assay [2] it was 500 to 2000 nM. The negative logarithm of the IC50 (pIC50) in assay [3] was 7.00 to 7.52.

`CON=c1[nH]c2c(N3CCN(C(=O)C4(C)CC4)[C@H](C)C3)cc(S(=O)(=O)NC3(C)CC3)cc2c(=O)n1Cc1cnn(C)c1` [Example 8, 2-methoxyimino-N-(1-methylcyclopropyl)-3-[(1-methylpyrazol-4-yl)methyl]-4-oxo-8-[(3R)-3-methyl-4-(1-methylcyclopropanecarbonyl)piperazin-1-yl]-1H-quinazoline-6-sulfonamide]: the results for the GI50 in assay [1] and in assay [2] were 500 to 2000 nM and below 500 nM, respectively. In assay [3], the negative-log IC50 (pIC50) is above 7.52.

Source of the values: patent US20260042754A1, “Substituted Bicyclic Heteroaryl Sulfonamide Derivatives for the Treatment of Cancer” (NODUS ONCOLOGY LIMITED, priority 2022, published 2026).
